Test results as given in patent US11166920B2, “Microfluidics device for fabrication of large, uniform, injectable hydrogel microparticles for cell encapsulation” (Auburn University, priority 2017, dated 2021).
“Also recorded” adds a separate entry of the source.

System: microsphere CMs
Test: Multielectrode array: drug response and exogenous pacing
Assay type: cell-based, human
Details: day 20 microsphere CMs; isoproterenol 1 μM, then propranolol 1 μM
Procedure: Day 20 and 50 dissociated microsphere CMs were seeded onto a fibronectin coated S2 type MEA200/30-Ti-gr (Multichannel Systems) and cultured for at least 24 h. Adhering microsphere CMs were perfused with Tyrode's solution, composed of 1.8 mM CaCl2), 5 mM glucose, 5 mM HEPES, 1 mM MgCl2, 5.4 mM KCl, 135 mM NaCl, and 0.33 mM NaH2PO4 at pH 7.4 and 37° C. Once stabilized, field potentials of spontaneous contractions were recorded at a sampling frequency of 10 kHz. Drug response of day 20 microsphere CMs was tested by adding the β-adrenergic agonist isoproterenol (1 μM) and antagonist propranolol (1 μM). Day 50 microsphere CMs were exogenously paced from 0.5-6.0 Hz.

| SMILES | Effect on contraction rate |
| --- | --- |
| CC(C)NCC(O)c1ccc(O)c(O)c1 (centres unmarked) [isoproterenol] | increases the frequency of contraction; also recorded: increasing the contraction rate |
| CC(C)NCC(O)COc1cccc2ccccc12 (centres unmarked) [propranolol] | slowed down the rate of contraction; also recorded: reversed the initial increase in contraction rate |
